A word on the Km: it is the substrate concentration at which the rate is half of its maximum.

Drawing on article PMC10013850 (Proceedings of the National Academy of Sciences of the …, 2023), this text covers Km for 2 molecules.

For series [1], the target named is T1, hMfsd2a (Homo sapiens, UniProt Q8NA29).
T1 sequence (Q8NA29 1-530 isoform Q8NA29-2): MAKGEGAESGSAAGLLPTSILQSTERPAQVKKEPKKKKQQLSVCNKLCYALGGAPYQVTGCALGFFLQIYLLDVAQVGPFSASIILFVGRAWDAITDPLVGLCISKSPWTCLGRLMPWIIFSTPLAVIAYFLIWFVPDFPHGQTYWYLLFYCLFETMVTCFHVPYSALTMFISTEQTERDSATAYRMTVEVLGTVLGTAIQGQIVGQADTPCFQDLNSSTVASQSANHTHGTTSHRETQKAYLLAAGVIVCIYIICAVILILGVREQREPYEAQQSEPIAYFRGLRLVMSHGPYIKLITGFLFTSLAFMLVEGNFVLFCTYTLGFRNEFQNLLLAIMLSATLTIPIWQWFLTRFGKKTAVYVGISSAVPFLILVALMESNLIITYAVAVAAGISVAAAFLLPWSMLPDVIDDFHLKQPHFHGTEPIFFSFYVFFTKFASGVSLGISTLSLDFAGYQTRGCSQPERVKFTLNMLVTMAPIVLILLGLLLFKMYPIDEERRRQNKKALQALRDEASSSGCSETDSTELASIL
Kind of series: single-cell flow cytometry uptake assay in transfected HEK293 cells. Conditions: read-out: apparent Km; 37 °C, 30 min, serum-free DMEM; labelled compound. On the technique in general: A flow cytometer gives signals particle by particle.

Substrate in series [2]: C[N+](C)(C)CCOP(=O)([O-])OC[C@H](O)COC(=O)CCCCCCCCCCCNc1ccc([N+](=O)[O-])c2nonc12
Nature of the series: cells, lysate or membranes. Conditions: 37 °C, 30 min, serum-free DMEM, labelled compound.

With LPC-16:1-NBD, the Km in series [1] was found to be 3 µM.

B1: hMfsd2a (Homo sapiens) (protein)
chain: MAKGEGAESGSAAGLLPTSILQSTERPAQVKKEPKKKKQQLSVCNKLCYALGGAPYQVTGCALGFFLQIYLLDVAQVGPFSASIILFVGRAWDAITDPLVGLCISKSPWTCLGRLMPWIIFSTPLAVIAYFLIWFVPDFPHGQTYWYLLFYCLFETMVTCFHVPYSALTMFISTEQTERDSATAYRMTVEVLGTVLGTAIQGQIVGQADTPCFQDLNSSTVASQSANHTHGTTSHRETQKAYLLAAGVIVCIYIICAVILILGVREQREPYEAQQSEPIAYFRGLRLVMSHGPYIKLITGFLFTSLAFMLVEGNFVLFCTYTLGFRNEFQNLLLAIMLSATLTIPIWQWFLTRFGKKTAVYVGISSAVPFLILVALMESNLIITYAVAVAAGISVAAAFLLPWSMLPDVIDDFHLKQPHFHGTEPIFFSFYVFFTKFASGVSLGISTLSLDFAGYQTRGCSQPERVKFTLNMLVTMAPIVLILLGLLLFKMYPIDEERRRQNKKALQALRDEASSSGCSETDSTELASIL
For B1, the Km in series [2] was found to be 244 µM.
